{"source": "patent US11590117B2", "about": "“Treatment of a hematologic malignancy with 2-(4-chlorophenyl)-n-((2-(2,6-dioxopiperidin-3-yl)-1-oxoisoindolin-5-yl)methyl)-2,2-difluoroacetamide” (priority 2016, dated 2023)", "key": {"[1]": {"test_system": "KG-1a", "assay": "IncuCyte Kinetic Caspase-3/7 Apoptosis Assay", "type": "cell-based", "settings": "Homo sapiens, read-out: Compound 1-induced Apoptosis EC50", "source_text": "(§1) Methods. Acute Myeloid Leukemia Cell Line Panel: Human AML cell lines, AML-193, F36-P, GDM-1, HL-60, HNT-34, Kasumi-1, Kasumi-3, KG-1, KG-1a, ML-2, MOLM-13, MUTZ-8, MV-4-11, NOMO-1, OCI-AML2, OCI-AML3, SIG-M5, TF-1, THP-1, and UT-7 were obtained from American Type Culture Collection (ATCC; Manassas, Va.) and Deutsche Sammlung von Mikroorganismen und Zellkulturen (DSMZ) (Germany) cell banks. The AML panel includes cell line(s) from each FAB classification (M0-M7) (Table 7).\n(§2) Cell Culture Conditions: Cell lines were maintained in growth media containing 20% fetal bovine serum (FBS) (Hyclone Cat no. SH30910.03, Lot no. AZF188864; Corning REFno. 35-010-CV, Lot no. 35010124) supplemented with or without 10 ng/mL human recombinant granulocyte-macrophage colony stimulating factor (Sigma-Aldrich Cat no. SRP3050) (Table 8). Medium was purchased from ATCC (Cat no. 30-2001, 30-2002, 30-2003, 30-2005) and Gibco (REF no. 12561-056). Human recombinant granulocyte macrophage colony stimulating factor (GM-CSF) was expressed in Escherichia coli. The cell doubling times for each cell line were provided by ATCC and DSMZ. Cells were maintained in humidified incubators at 5% carbon dioxide (CO2). All cell lines were acclimated to Eagle's minimal essential medium (EMEM)+20% FBS with or without GM-CSF over 2 to 4 weeks prior to live cell imaging using IncuCyte Zoom (Essen Biosciences). The use of EMEM was necessary to eliminate background fluorescence caused by riboflavin in most media.\n(§3) Incubation of Cell Cultures with Compound 1: Compound 1 was provided for studies by Celgene chemistry group at a stock concentration of 30 mM in 20 μL dimethyl sulfoxide (DMSO) frozen. Costar 96-well cell culture plates (Corning Cat no. 3595) were coated with 100 μL of 10 µg/mL fibronectin (Sigma-Aldrich Cat no. F1141) for 4 hours at 37° C. and immediately used or refrigerated overnight for later use. Cells (3000 to 6000 cells) were plated in growth medi in fibronectin-coated 96-well plates and incubated for a minimum of a few hours to overnight. Cells were incubated with a 12-point concentration response in triplicate with Compound 1 ([…]) including DMSO and Media controls. A 3-fold serial dilution of Compound 1 starting from a concentration of 200 μM in 0.6% DMSO (diluted in Media) was performed. For most sensitive cell lines, a 3-fold serial dilution of Compound 1 starting from a concentration of 20 μM in 0.6% DMSO (diluted in media) was performed. A volume of 5 μL or 10 μL for each dilution was added to 100 μL or 200 μL cells, respectively (0.3% DMSO final) and incubated for live cell imaging.\n(§4) Live Cell Imaging on IncuCyte Zoom: Following incubation of cells with Compound 1, diluted Caspase 3/7 reagent (Essen Biosciences Cat no. 4440) is added to each well. The Caspase-3/7 reagent couples the activated caspase-3/7 recognition motif (DEVD) to NucView™488, a DNA intercalating dye. The cleavage of substrate by activated caspase-3/7 results in the release of the DNA dye and green fluorescent staining of nuclear DNA. This allows imaging of cells undergoing caspase-3/7 mediated apoptosis over time. Caspase-3/7 activation was quantified using the IncuCyte™ ZOOM basic analyzer. Red-labeled cell lines were also imaged over time using the IncuCyte™ ZOOM basic analyzer, for determination of both cell doubling time and Compound 1 effect on cell viability. Experiments were performed at least two times in each cell line.\n(§5) Next, a 4 parameter log-logistic model was used to determine relative EC50 at each time point by the ‘drm’ function from the R ‘drc’ package (Ritz C, Streibig J C. Bioassay Analysis using R. J. Statist. Software 2005; 12(5):1-22). Goodness of fit was measured by R squared (coefficient of determination or the amount of variation explained by the model fit) of ≥80%, and EC50 parameter was assessed by having a ratio of standard error to the parameter of ≤40%, and the presence of at least one concentration point above and below the reported EC50. […]"}, "[2]": {"test_system": "MUTZ-8", "assay": "IncuCyte Kinetic Caspase-3/7 Apoptosis Assay", "type": "cell-based", "settings": "Homo sapiens, read-out: Compound 1-induced Apoptosis EC50", "source_text": "as §1, §2, §3, §4, §5"}, "[3]": {"test_system": "KG-1", "assay": "IncuCyte Kinetic Caspase-3/7 Apoptosis Assay", "type": "cell-based", "settings": "Homo sapiens, read-out: Compound 1-induced Apoptosis EC50", "source_text": "as §1, §2, §3, §4, §5"}, "[4]": {"test_system": "MOLM-13", "assay": "IncuCyte Kinetic Caspase-3/7 Apoptosis Assay", "type": "cell-based", "settings": "Homo sapiens, read-out: Compound 1-induced Apoptosis EC50", "source_text": "as §1, §2, §3, §4, §5"}, "[5]": {"test_system": "UT-7", "assay": "IncuCyte Kinetic Caspase-3/7 Apoptosis Assay", "type": "cell-based", "settings": "Homo sapiens, read-out: Compound 1-induced Apoptosis EC50", "source_text": "as §1, §2, §3, §4, §5"}, "[6]": {"test_system": "GDM-1", "assay": "IncuCyte Kinetic Caspase-3/7 Apoptosis Assay", "type": "cell-based", "settings": "Homo sapiens, read-out: Compound 1-induced Apoptosis EC50", "source_text": "as §1, §2, §3, §4, §5"}, "[7]": {"test_system": "HL-60 human AML cells", "assay": "HL-60 IV AML xenograft model, survival study", "type": "in vivo, SCID mice", "experimental": "In this study, Compound 1 antitumor activity in the HL-60 IV AML xenograft model was studies. In this model, HL-60 human AML cells engraft in host BM and internal organs (eg, spleen, liver) and animals develop progressive peripheral leukocytosis. Female severe combined immunodeficiency (SCID) mice were inoculated with HL-60 cells by tail vein injection. To understand the effect of Compound 1 on the xenografted HL-60 cells, animals were dosed intraperitoneal (IP) with vehicle or Compound 1 (0.5, 1, 2.5, and 5 mg/kg) once daily (QD)×5 between Weeks 3 and 4 post-engraftment (AP6516, survival study) or animals were dosed IP twice daily (BID) with vehicle or Compound 1 for 5 or 10 consecutive days (5 mg/kg BID×5 or 2.5 mg/kg, BID×10) between Weeks 6 and 8 post-engraftment (Study AP6982, % human CD33+[hCD33+] cells in BM).\nTumor burden from the peripheral blood of HL-60-bearing animals was assessed by fluorescence-activated cell sorting (FACS) at Week 7 post-tumor cell inoculation. […] Mice from the vehicle control and Compound 1 treatment groups succumbed to disease burden starting on Day 54 for the vehicle control group and between Day 51 and Day 57 for the Compound 1 treatment groups. […] One mouse (1/8) from the 2.5 mg/kg Compound 1-treated group survived to study termination on Day 162."}}, "note": "Where two headings read alike, the source gives them in different places."}
{"smiles": "O=C1CCC(N2Cc3cc(CNC(=O)C(F)(F)c4ccc(Cl)cc4)ccc3C2=O)C(=O)N1", "note": "(stereo not drawn) [Compound 1, 2-(4-chlorophenyl)-N-((2-(2,6-dioxopiperidin-3-yl)-1-oxoisoindolin-5-yl)methyl)-2,2-difluoroacetamide]", "values": [{"measurement": "EC50", "setting": "[1]; 24 hr", "value": 226, "unit": "nM"}, {"measurement": "EC50", "setting": "[1]; 48 hr", "value": 145, "unit": "nM"}, {"measurement": "EC50", "setting": "[1]; 72 hr", "value": 186, "unit": "nM"}, {"measurement": "EC50", "setting": "[2]; 24 hr", "value": 88, "unit": "nM"}, {"measurement": "EC50", "setting": "[2]; 48 hr", "value": 40, "unit": "nM"}, {"measurement": "EC50", "setting": "[2]; 72 hr", "value": 18, "unit": "nM"}, {"measurement": "EC50", "setting": "[2]; 96 hr", "value": 15, "unit": "nM"}, {"measurement": "EC50", "setting": "[3]; 12 hr", "value": 53, "unit": "nM"}, {"measurement": "EC50", "setting": "[3]; 24 hr", "value": 108, "unit": "nM"}, {"measurement": "EC50", "setting": "[3]; 48 hr", "value": 39, "unit": "nM"}, {"measurement": "EC50", "setting": "[3]; 72 hr", "value": 26, "unit": "nM"}, {"measurement": "EC50", "setting": "[3]; 96 hr", "value": 25, "unit": "nM"}, {"measurement": "EC50", "setting": "[4]; 24 hr", "value": 916, "unit": "nM"}, {"measurement": "EC50", "setting": "[4]; 48 hr", "value": 368, "unit": "nM"}, {"measurement": "EC50", "setting": "[4]; 72 hr", "value": 156, "unit": "nM"}, {"measurement": "EC50", "setting": "[4]; 96 hr", "value": 79, "unit": "nM"}, {"measurement": "EC50", "setting": "[5]; UT7, 48 hr", "value": 231, "unit": "nM"}, {"measurement": "EC50", "setting": "[5]; UT7, 72 hr", "value": 218, "unit": "nM"}, {"measurement": "EC50", "setting": "[5]; UT7, 96 hr", "value": 168, "unit": "nM"}, {"measurement": "EC50", "setting": "[6]; 12 hr", "value": 110, "unit": "nM"}, {"measurement": "EC50", "setting": "[6]; 24 hr", "value": 313, "unit": "nM"}, {"measurement": "EC50", "setting": "[6]; 48 hr", "value": 49, "unit": "nM"}, {"measurement": "EC50", "setting": "[6]; 72 hr", "value": 33, "unit": "nM"}, {"measurement": "EC50", "setting": "[6]; 96 hr", "value": 25, "unit": "nM"}, {"measurement": "mice surviving to study termination on Day 162", "setting": "[7]; 2.5 mg/kg group", "value": "1/8"}, {"measurement": "overall survival", "setting": "[7]; 0.5, 1, 2.5, 5 mg/kg IP QD×5 between Weeks 3 and 4 post-engraftment", "value": "No overall survival benefit"}, {"measurement": "tumor burden from peripheral blood (FACS)", "setting": "[7]; Week 7 post-tumor cell inoculation, 0.5, 1, 2.5, 5 mg/kg IP QD×5, vs vehicle", "value": "No effect"}]}
